# Experimental data taken from patent US20220194938A1, “NOVEL COMPOUNDS AND PHARMACEUTICAL COMPOSITIONS THEREOF FOR THE TREATMENT OF INFLAMMATORY DISORDERS” (GALAPAGOS NV, priority 2019, published 2022).
# pIC50: −log10 of the molar value.
# Key:
# [1] = system: pooled cryopreserved hepatocytes; experiment: Metabolic stability in hepatocytes (human); format: in vitro ADME; settings: 1 μM test compound
# Method: (§1) 4.6. Metabolic Stability in Hepatocytes
# (§2) The aim of this assay is to determine the metabolic stability of the compound in hepatocytes (cryopreserved) of different species. Low hepatocyte stability may result in the formation of unwanted metabolites, high clearance, and therefore is not desirable.
# (§3) The decrease in parent was assessed by measuring the percentage remaining by LC-MS/MS analysis.
# (§4) A 10 mM stock solution of test compound in DMSO was first diluted in DMSO to 3 mM, and then in modified Krebs-Henseleit buffer (Sigma, K3753) to 5 μM. This compound dilution was added to a suspension of pooled cryopreserved hepatocytes (BioreclamationIVT) at 37° C. under gentle shaking.
# (§5) Final reaction conditions were: 1 μM of test compound, 0.03% DMSO, 0.5 million viable hepatocytes/mL, and 75 μL incubation volume.
# (§6) Testosterone (1 μM) and 7-hydroxycoumarin (1 μM) were used, respectively as phase I and phase II metabolic reaction controls.
# (§7) After 0, 10, 20, 45, 90, 120 and 180 min of incubation, the reaction was terminated with 225 μL of MeCN:MeOH (2:1) containing 100 ng/mL of diclofenac as analytical internal standard. Samples were mixed, centrifuged and the supernatant analyzed by LC-MS/MS.
# (§8) The instrument responses (ratios of test compound and internal standard peak areas) were referenced to the zero time point samples (considered as 100%) in order to determine the percentage of compound remaining.
# (§9) Plots of percentage compound remaining are used to determine the intrinsic clearance in the hepatocyte incubations using the following equations:
# (§10) Scaled Clint[L/h/kg]=Clint[μL/min/10^6 cells]*#(10^6) cells/g liver*60*(1/10^6) Scaled Clint unbound [L/h/kg]=Clint [L/h/kg]/Fu,inc where: fu,inc equals hepatocyte binding, derived from microsomal binding (fu,mic) by following equation: […]
# [2] = system: pooled cryopreserved hepatocytes; experiment: Metabolic stability in hepatocytes (mouse); format: in vitro ADME; settings: 1 μM test compound
# Method: as §1, §2, §3, §4, §5, §6, §7, §8, §9, §10
# human IRAK-4 = molecular target: T1, human IRAK-4 (Homo sapiens, UniProt Q9NWZ3); experiment: Phosphorylation IC50 determination for human IRAK-4 (ADP-Glo kinase assay); settings: human IRAK-4, RIP140 substrate, Km ATP; read-out: IRAK4 ADPglo biochemical assay IC50
# T1 construct: purchased Carna Biosciences 09 145
# T1 sequence (Q9NWZ3 1-460): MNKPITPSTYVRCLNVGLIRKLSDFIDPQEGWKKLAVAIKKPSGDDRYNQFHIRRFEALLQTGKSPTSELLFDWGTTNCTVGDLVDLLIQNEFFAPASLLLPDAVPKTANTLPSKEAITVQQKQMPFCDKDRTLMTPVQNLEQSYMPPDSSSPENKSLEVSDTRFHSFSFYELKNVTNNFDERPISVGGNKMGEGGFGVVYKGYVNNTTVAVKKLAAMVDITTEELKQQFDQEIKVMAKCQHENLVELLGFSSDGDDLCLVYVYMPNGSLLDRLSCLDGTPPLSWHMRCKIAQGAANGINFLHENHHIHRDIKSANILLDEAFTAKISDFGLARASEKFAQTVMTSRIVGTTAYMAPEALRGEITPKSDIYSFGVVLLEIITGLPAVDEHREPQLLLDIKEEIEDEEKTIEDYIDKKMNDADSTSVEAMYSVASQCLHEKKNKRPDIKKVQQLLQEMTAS
# Summary of the method: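 IRAK-4 phosphorylation of RIP140 at Km ATP in Tris pH 7.5 buffer with Triton X-100, EGTA, MgCl2, DTT and MnCl2, 120 min at room temperature. ADP formed was measured by ADP-Glo luminescence. Ten-point, 5-fold dilutions (highest final 20 μM, automated format; 1% DMSO), normalised to staurosporine (100%) and DMSO (0%) controls.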
SMILES,Human (Perc. remaining at 90 min) [1],Mouse (Perc. remaining at 90 min) [2],pIC50 (human IRAK-4)
"[2H]C([2H])([2H])NC(=O)c1cc2nc(CCC(C)(C)O)cn2cc1NC(=O)c1cccc(C(F)(F)F)n1 [Compound 1, 2-(3-hydroxy-3-methyl-butyl)-N-(trideuteriomethyl)-6-[[6-(trifluoromethyl)pyridine-2-carbonyl]amino]imidazo[1,2-a]pyridine-7-carboxamide]",96.4%,96.3%,8.30 to 10.00
"CNC(=O)c1cc2nc(CCC(C)(C)O)cn2cc1NC(=O)c1cccc(C(F)(F)F)n1 [Compound 2, 2-(3-hydroxy-3-methyl-butyl)-N-methyl-6-[[6-(trifluoromethyl)pyridine-2-carbonyl]amino]imidazo[1,2-a]pyridine-7-carboxamide]",99.9%,103.4%,8.30 to 10.00
"COc1cc2nc(CCC(C)(C)O)cn2cc1NC(=O)c1cccc(C(F)(F)F)n1 [Compound 3, N-[2-(3-hydroxy-3-methyl-butyl)-7-methoxy-imidazo[1,2-a]pyridin-6-yl]-6-(trifluoromethyl)pyridine-2-carboxamide]",94.55%,39.9%,8.30 to 10.00
"COc1cc2nc(CCC(C)(C)O)cn2cc1NC(=O)c1cccn(C)c1=O [Compound 4, N-[2-(3-hydroxy-3-methyl-butyl)-7-methoxy-imidazo[1,2-a]pyridin-6-yl]-1-methyl-2-oxo-pyridine-3-carboxamide]",99.7%,87.75%,8.00 to 8.30
"COc1cc2nc(CCC(C)(C)O)cn2cc1NC(=O)c1cccn(C2CC2)c1=O [Compound 5, 1-cyclopropyl-N-[2-(3-hydroxy-3-methyl-butyl)-7-methoxy-imidazo[1,2-a]pyridin-6-yl]-2-oxo-pyridine-3-carboxamide]",95.6%,100%,8.30 to 10.00
"COc1cc2nc(CCC(C)(C)O)cn2cc1NC(=O)c1cccc(C)n1 [Compound 6, N-[2-(3-hydroxy-3-methyl-butyl)-7-methoxy-imidazo[1,2-a]pyridin-6-yl]-6-methyl-pyridine-2-carboxamide]",30.3%,4.5%,8.30 to 10.00
"COc1cc2nc(CCC(C)(C)O)cn2cc1NC(=O)c1cccc(C(F)F)n1 [Compound 7, 6-(difluoromethyl)-N-[2-(3-hydroxy-3-methyl-butyl)-7-methoxy-imidazo[1,2-a]pyridin-6-yl]pyridine-2-carboxamide]",78.4%,26.4%,8.30 to 10.00
"COc1cccc(C(=O)Nc2cn3cc(CCC(C)(C)O)nc3cc2OC)n1 [Compound 8, N-[2-(3-hydroxy-3-methyl-butyl)-7-methoxy-imidazo[1,2-a]pyridin-6-yl]-6-methoxy-pyridine-2-carboxamide]",78.4%,26.4%,8.30 to 10.00
"COc1cc2nc(CCC(C)(C)O)cn2cc1NC(=O)c1cccn(C(F)F)c1=O [Compound 12, 1-(difluoromethyl)-N-[2-(3-hydroxy-3-methyl-butyl)-7-methoxy-imidazo[1,2-a]pyridin-6-yl]-2-oxo-pyridine-3-carboxamide]",100.7%,88.1%,8.00 to 8.30
"COc1cc2nc(CCC(C)(C)O)cn2cc1NC(=O)c1cccn(CC(F)(F)F)c1=O [Compound 13, N-[2-(3-hydroxy-3-methyl-butyl)-7-methoxy-imidazo[1,2-a]pyridin-6-yl]-2-oxo-1-(2,2,2-trifluoroethyl)pyridine-3-carboxamide]",105.95%,109.5%,< 7.30
"COc1cc2nc(CCC(C)(C)O)cn2cc1NC(=O)c1cccn(C2CCC2)c1=O [Compound 18, 1-cyclobutyl-N-[2-(3-hydroxy-3-methyl-butyl)-7-methoxy-imidazo[1,2-a]pyridin-6-yl]-2-oxo-pyridine-3-carboxamide]",93.95%,60.9%,8.30 to 10.00
"COc1cc2nc(CCC(C)(C)O)cn2cc1NC(=O)c1cccc(C(C)(F)F)n1 [Compound 20, 6-(1,1-difluoroethyl)-N-[2-(3-hydroxy-3-methyl-butyl)-7-methoxy-imidazo[1,2-a]pyridin-6-yl]pyridine-2-carboxamide]",75.55%,75.2%,8.30 to 10.00
"CCn1cccc(C(=O)Nc2cn3cc(CCC(C)(C)O)nc3cc2OC)c1=O [Compound 23, 1-ethyl-N-[2-(3-hydroxy-3-methyl-butyl)-7-methoxy-imidazo[1,2-a]pyridin-6-yl]-2-oxo-pyridine-3-carboxamide]",91.45%,89.65%,8.00 to 8.30
"COc1cc2nc(CCS(C)(=O)=O)cn2cc1NC(=O)c1cccc(C(F)(F)F)n1 [Compound 24, N-[7-methoxy-2-(2-methylsulfonylethyl)imidazo[1,2-a]pyridin-6-yl]-6-(trifluoromethyl)pyridine-2-carboxamide]",73.6%,46%,8.30 to 10.00
"COc1cc2nc(CCS(C)(=O)=O)cn2cc1NC(=O)c1cccn(C2CC2)c1=O [Compound 25, 1-cyclopropyl-N-[7-methoxy-2-(2-methylsulfonylethyl)imidazo[1,2-a]pyridin-6-yl]-2-oxo-pyridine-3-carboxamide]",95.3%,95.05%,8.30 to 10.00
"CC(C)(O)CCc1cn2cc(NC(=O)c3cccc(C(F)(F)F)n3)c(C(N)=O)cc2n1 [Compound 31, 2-(3-hydroxy-3-methyl-butyl)-6-[[6-(trifluoromethyl)pyridine-2-carbonyl]amino]imidazo[1,2-a]pyridine-7-carboxamide]",94.9%,96.5%,8.30 to 10.00
"COCCc1cn2cc(NC(=O)c3cccc(C(F)(F)F)n3)c(OC)cc2n1 [Compound 35, N-[7-methoxy-2-(2-methoxyethyl)imidazo[1,2-a]pyridin-6-yl]-6-(trifluoromethyl)pyridine-2-carboxamide]",64.9%,25.85%,7.30 to 8.00
"CCOc1c(NC(=O)c2cccn(C3CC3)c2=O)cn2cc(CCC(C)(C)O)nc2c1F [Compound 37, 1-cyclopropyl-N-[7-ethoxy-8-fluoro-2-(3-hydroxy-3-methyl-butyl)imidazo[1,2-a]pyridin-6-yl]-2-oxo-pyridine-3-carboxamide]",99.7%,103.5%,8.30 to 10.00
"CCOc1c(NC(=O)c2cccn(C)c2=O)cn2cc(CCC(C)(C)O)nc2c1F [Compound 38, N-[7-ethoxy-8-fluoro-2-(3-hydroxy-3-methyl-butyl)imidazo[1,2-a]pyridin-6-yl]-1-methyl-2-oxo-pyridine-3-carboxamide]",–,–,8.00 to 8.30
"CCOc1c(NC(=O)c2cccn(C3CC3)c2=O)cn2cc(CCS(C)(=O)=O)nc2c1F [Compound 39, 1-cyclopropyl-N-[7-ethoxy-8-fluoro-2-(2-methylsulfonylethyl)imidazo[1,2-a]pyridin-6-yl]-2-oxo-pyridine-3-carboxamide]",–,–,8.00 to 8.30
"COc1c(NC(=O)c2cccn(C3CC3)c2=O)cn2cc(CCC(C)(C)O)nc2c1F [Compound 42, 1-cyclopropyl-N-[8-fluoro-2-(3-hydroxy-3-methyl-butyl)-7-methoxy-imidazo[1,2-a]pyridin-6-yl]-2-oxo-pyridine-3-carboxamide]",96.75%,91.45%,8.30 to 10.00
